Source: patent US7375124B2, “Use of α-phenylthiocarboxylic and α-phenyloxycarboxylic acids with serum-glucose-lowering and serum-lipid-lowering activity” (Sigma-Tau Industrie Farmaceutiche Riunite S.p.A., priority 2002, dated 2008)
Each block holds one compound with its values, some of them ahead of it.

Columns and labels:
mPPARαLBD/Gal4DBD = target: T1, mPPARαLBD/Gal4DBD (Mus musculus, UniProt P23204); experiment: Transactivation assay mediated by mPPARαLBD/Gal4DBD in COS-7 cells (CAT reporter); assay type: cell-based
T1 construct: expressed in transfected cells; host or cells: COS-7 (monkey kidney fibroblasts)
T1 sequence (P23204 239-466 limits assumed): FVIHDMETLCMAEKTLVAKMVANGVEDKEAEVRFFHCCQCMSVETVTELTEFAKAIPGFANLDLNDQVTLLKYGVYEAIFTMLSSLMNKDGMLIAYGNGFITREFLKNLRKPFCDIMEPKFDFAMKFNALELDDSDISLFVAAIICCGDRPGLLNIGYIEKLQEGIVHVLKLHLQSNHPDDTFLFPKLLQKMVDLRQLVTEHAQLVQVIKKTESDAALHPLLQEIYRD
Excerpt: In this model a transactivation assay is used in which the expression vector mPPARαLBD/Gal4 DBD allows the synthesis by the transfected cell of a chimeric protein, in which the ligand binding domain (LBD) of PPARα is fused with the DNA binding domain (DBD) of the transcription factor GAL4 of yeast [Luckow B. et al., Nucleic Acids Res. 15, 5490 (1987)]. Simultaneously, a plasmid (pG5CAT) is transfected which contains 5 copies of the high-affinity binding site for GAL4 (also called UAS, upstream activating sequence), upstream of the viral promoter E1b fused with the CAT reporter gene [Moya-Camarena S. Y. et al., J. Lipid Res. 40 (8), 1426-33 (1999)]. This model eliminates interference by possible endogenous receptors.
This is due to the fact that the activation of E1b and the production of CAT will occur exclusively thanks to the interaction of GAL4 DBD with its own response element (UAS). Since the transcription factor GAL4 is not expressed in […] cells, transactivation of the reporter gene can take place only when, as a result of the interaction of a ligand with the LBD of PPARα, the chimeric protein PPARα/GAL4 recognises the UAS sequence on the plasmid pG5CAT. Together with the expression vector and the reporter vector the cells were also transfected with the plasmid pCH110 which provides the internal control for the efficiency of transfection and the normalisation of the results.
A monkey kidney fibroblast cell line (COS-7) was used [Elbrecht A. et al., J. Biol. Chem. 274 (12), 7913-22 (1999)]. The cells were co-transfected with the reporter vector, the expression plasmid coding for the fusion protein Gal4 DBD/PPARαLBD and the control vector pCH110. The cells were exposed to increasing concentrations of the study compounds and CAT activity was evaluated. Untreated cells were used as controls.
(§1) Monkey kidney fibroblasts (COS-7) were cultured according to the usual cell culture techniques, at 37° C. in a 5% v/v carbon dioxide atmosphere using as the growth medium DMEM (Dulbecco's modified Eagle's medium) modified with 3.7 g/l of sodium bicarbonate, 4 mM L-glutamine, 4.5 g/l of glucose, 1 mM sodium pyruvate and 10% v/v of foetal bovine serum, in the presence of streptomycin 100 μg/ml and penicillin 100 U/ml final.
The cells were co-transfected using the transfection reagent FuGENE6 (Roche), consisting of a defined mixture of lipids capable of complexing the DNA and of transporting it into the cells. Twenty-four hours prior to transfection the cells were plated at a density of 1.2×10^5 cells/well in 12-well plates and maintained at 37° C. in a 5% v/v CO2 atmosphere. […] Briefly, the transfection mixture containing 0.8 μg of the expression vector, 1.6 μg of the reporter vector, 0.8 μg of the control vector and 9 μl of the FuGENE6 reagent per well was added directly to the cells in the presence of culture medium devoid of serum. After 5 hours, the transfection medium was replaced by 1 ml of culture medium complete with serum and antibiotics in the presence or absence of the molecules to be tested at 3 different concentrations (2, 20 and 100 μM). Wy-14,643 (2 μM), a known ligand of PPARα, was used as the positive reference compound.
After 48 hours' incubation at 37° C. in a 5% v/v CO2 atmosphere, the cells were washed twice with 1 ml of phosphate buffer (PBS) and removed mechanically from the wells in TEN buffer (Tris[hydroxymethyl]aminomethane 10 mM pH 8, ethylenediamine-tetraacetic acid 1 mM pH 8, sodium chloride 0.1 M). After centrifuging for 3 minutes at 1000 rpm, the cells were resuspended in 65 μl of lysis buffer (Tris-HCl 0.25 M, pH 8) and then lysed thanks to three rapid freeze-thaw cycles. The insoluble cellular materials (debris) were removed by centrifuging at 15,000 rpm for 15 minutes at 4° C., and the supernatant was recovered and used for the CAT and β-galactosidase activity assays. […]

PPARγ = target: T2, PPARγ (Mus musculus, UniProt P37238); experiment: Transactivation assay mediated by PPARγ in NIH-3T3 cells (CAT reporter); assay type: cell-based
T2 construct: expressed in transfected cells; host or cells: NIH-3T3 (mouse embryonal fibroblasts)
T2 sequence (P37238 1-475 isoform P37238-2): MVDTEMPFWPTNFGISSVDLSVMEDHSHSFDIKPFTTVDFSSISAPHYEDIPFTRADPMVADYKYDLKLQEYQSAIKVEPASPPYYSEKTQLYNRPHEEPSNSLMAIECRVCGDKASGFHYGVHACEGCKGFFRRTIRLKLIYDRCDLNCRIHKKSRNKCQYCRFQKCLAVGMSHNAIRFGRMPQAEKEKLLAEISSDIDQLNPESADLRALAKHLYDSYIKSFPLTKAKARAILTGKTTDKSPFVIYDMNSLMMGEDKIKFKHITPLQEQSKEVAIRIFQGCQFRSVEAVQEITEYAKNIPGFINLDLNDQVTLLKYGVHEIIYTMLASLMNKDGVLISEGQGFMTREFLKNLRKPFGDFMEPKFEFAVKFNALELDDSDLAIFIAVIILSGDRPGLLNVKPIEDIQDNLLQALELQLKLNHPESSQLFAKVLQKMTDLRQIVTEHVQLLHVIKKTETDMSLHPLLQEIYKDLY
Excerpt: A transactivation assay specific for PPARγ thus requires the simultaneous presence of the following in the preselected cell line: • a) a sufficient amount of PPARγ; • b) a sufficient amount of the 9 cis-retinoic acid receptor (RXR); • c) a chimeric plasmid containing the reporter gene controlled by a PPRE, located upstream of a viral heterologous promoter. In our case the reporter gene is chloramphenicol-acetyl transferase (CAT).
In the transactivation assay used, the preselected cells are transfected with the expression vector pSG5 Stop-mPPARg1 which allows the synthesis of the PPARγ receptor by the transfected cell. Simultaneously, a plasmid reporter (pBLCAT2-PPRE) is transfected which contains a peroxisome proliferator response element (PPRE) isolated by the gene promoter for acyl-CoA oxidase, upstream of the heterologous promoter of viral thymidine kinase (TK) fused with the reporter gene CAT. Since the endogenous cell levels of the RXR receptor are sufficiently high, it is not necessary to transfect an expression vector specific for RXR as well. […] Therefore, any increase in CAT levels will be the result of increased gene transcription dependent upon the dimerisation of PPARγ with RXR and upon the heterodimer bond formed with the peroxisome proliferator response element. Together with the expression vector and the reporter vector the cells are also transfected with the plasmid pCH110 which provides the internal control for the efficiency of transfection and the normalisation of the results
A cell line of mouse embryonal fibroblasts (NIH-3T3) was used [Hogan J. C. et al., Biochem Biophys Res Commun. 287 (2), 484-92 (2001)]. The cells were transfected with the reporter plasmid, the expression plasmid coding for the PPARγ receptor and the control vector pCH110. The cells were exposed to increasing concentrations of the study compounds and CAT activity was evaluated. Untreated cells were used as controls.
as §1, with “Mouse embryonal” for “Monkey kidney”, “(NIH-3T3)” for “(COS-7)”, “calf” for “foetal bovine”
The cells were co-transfected using the transfection reagent FuGENE6 (Roche), already described in the previous example. Twenty-four hours prior to transfection the cells were plated at a density of 8.0×10^4 cells/well in 12-well plates and maintained at 37° C. in a 5% v/v CO2 atmosphere. The culture medium, devoid of serum, was replaced 2 hours before transfection, and then the cells were treated with the transfection reagent FuGENE6, as described in the previous example. After 5 hours, the transfection medium was replaced by 1 ml of culture medium complete with serum and antibiotics in the presence or absence of the molecules to be tested at 3 different concentrations (2, 20 and 100 μM). Rosiglitazone, a known ligand of PPARγ, was used as the positive reference compound.
The cell protein extracts were prepared and the CAT activity assay was conducted exactly as described in the previous example.
As an internal control for the normalisation of the CAT activity in relation to the transfection efficiency, β-galactosidase activity coded for by the corresponding gene in the co-transfected plasmid pCH110 was used.
β-galatosidase activity was measured exactly as described in the previous example.
For the normalisation of the CAT assay results in relation to […] activity the formula described in the previous example was used.

- melting point: 101 to 103 °C
Structure (SMILES): COC(=O)C(C)(C)Sc1cccc(OCCn2c3ccccc3c3ccccc32)c1 [Example 6, methyl 2-[3-(2-(carbazol-9-yl)ethoxy)phenylthio]isobutyrate]

- melting point: 72 to 74 °C
Structure (SMILES): COC(=O)C(C)(C)Sc1ccc(OCCn2c3ccccc3c3ccccc32)cc1 [Example 7, methyl 2-[4-(2-(carbazol-9-yl)ethoxy)phenylthio]isobutyrate]

- melting point: 56 to 57 °C
Structure (SMILES): COC(=O)C(C)(C)Sc1ccc(OCCc2ccc3ccccc3c2)cc1 [Example 11, methyl 2-[4-[2-(2-naphthyl)ethoxy]phenylthio]isobutyrate]

- melting point: 87 to 88 °C
Structure (SMILES): CC(C)(Sc1ccc(OCCc2ccc(Cl)cc2)cc1)C(=O)O [Example 12, 2-[4-[2-(4-chlorophenyl)ethoxy]phenylthio]-2-methylpropanoic acid]

- Activation of reporter gene CAT as a percentage of the reference compound (WY-14,643 2 μM = 100%) (mPPARαLBD/Gal4DBD; 2 μM): 132.3%
- Activation of reporter gene CAT as a percentage of the reference compound (WY-14,643 2 μM = 100%) (mPPARαLBD/Gal4DBD; 20 μM): 199.3%
- Activation of reporter gene CAT as a percentage of the reference compound (WY-14,643 2 μM = 100%) (mPPARαLBD/Gal4DBD; 100 μM): 203.8%
- Activation of the gene-reporter CAT as a percentage of the reference compound (rosiglitazone 2 μM = 100%) (PPARγ; 2 μM): 61.6%
- Activation of the gene-reporter CAT as a percentage of the reference compound (rosiglitazone 2 μM = 100%) (PPARγ; 20 μM): 91.6%
- Activation of the gene-reporter CAT as a percentage of the reference compound (rosiglitazone 2 μM = 100%) (PPARγ; 100 μM): 101%
Structure (SMILES): CC(C)(Sc1cccc(OCCc2ccc(Cl)cc2Cl)c1)C(=O)O [Example 13, 2-[3-(2-(2,4-dichlorophenyl)ethoxy)phenylthio]-2-methylpropanoic acid]

- Activation of reporter gene CAT as a percentage of the reference compound (WY-14,643 2 μM = 100%) (mPPARαLBD/Gal4DBD; 2 μM): 85%
- Activation of reporter gene CAT as a percentage of the reference compound (WY-14,643 2 μM = 100%) (mPPARαLBD/Gal4DBD; 20 μM): 96.4%
- Activation of reporter gene CAT as a percentage of the reference compound (WY-14,643 2 μM = 100%) (mPPARαLBD/Gal4DBD; 100 μM): 151.9%
- Activation of the gene-reporter CAT as a percentage of the reference compound (rosiglitazone 2 μM = 100%) (PPARγ; 2 μM): 25%
- Activation of the gene-reporter CAT as a percentage of the reference compound (rosiglitazone 2 μM = 100%) (PPARγ; 20 μM): 67%
- Activation of the gene-reporter CAT as a percentage of the reference compound (rosiglitazone 2 μM = 100%) (PPARγ; 100 μM): 82.2%
Structure (SMILES): CC(C)(Sc1cccc(OCCc2ccc3ccccc3c2)c1)C(=O)O [Example 18, 2-[3-[2-(2-naphthyl)ethoxy]phenylthio]-2-methylpropanoic acid]

- melting point: 103 to 104 °C
Structure (SMILES): CC(C)(Sc1ccc(OCCc2ccc3ccccc3c2)cc1)C(=O)O [Example 19, 2-[4-[2-(2-naphthyl)ethoxy]phenylthio]-2-methylpropanoic acid]

- melting point: 81 to 82 °C
Structure (SMILES): COC(=O)C(C)(C)Sc1cccc(OCc2ccc(-c3ccc([N+](=O)[O-])cc3)o2)c1 [Example 22, methyl 2-[3-[5-(4-nitrophenyl)furfuryloxy]phenylthio]isobutyrate]

- melting point: 137 to 138 °C
Structure (SMILES): CC(C)(Sc1cccc(OCc2ccc(-c3ccc([N+](=O)[O-])cc3)o2)c1)C(=O)O [Example 25, 2-methyl-2-[3-[5-(4-nitrophenyl)furfuryloxy]phenylthio]propanoic acid]
